Entries after “also recorded” stand apart in the source; their conditions may differ.
How the values were obtained:
[1] = Photostability under UV-visible light with HPLC analysis (degradation, dimer formation); assay type: physicochemical; conditions: for % Degradation (3h, UV): 10 μM, buffered aqueous solution pH 7.4, 3 h UV-visible light, ± SD; for Dimers Formation: HPLC at 550 nm
Excerpt: Two different HPLC wavelengths were utilized: (a) […] to evaluate the decreased concentration of the starting molecule; (b) 550 nm to investigate the formation of phenazine/phenazinium dimers, as previously described.[10] Unfortunately, dimer formation was detected for all tested compounds, except for 23 and 24. […]. […]. The first group consisted of N4 (−X- in Table 2) substituted analogues, in which the tertiary amine is unavailable for the formation of phenazine dimers (compounds 25–28). […]. The third group included derivatives replacing hydrogen atoms with electron-withdrawing fluorine atoms at position R2 of the benzene-1,2,4-triamine core scaffold (compounds 59, 60), a strategy likely reducing the reactivity of N2 and N4. […].
Photostability experiments were performed by dissolving compounds in DMSO and then diluting in buffered aqueous solutions at pH 7.4 to a final concentration of 10 μM. 1 cm quartz cells, filled with the abovementioned solutions, were irradiated by a UV lamp (UV Consulting TQ 150 equipped with Duran 50 sleeve and 150 W power supply unit, Peschl, Germany) at a fixed distance of 20 cm from the UV source. Control samples were maintained at 37 °C, wrapped with aluminum foil to avoid light exposure, and used to assess chemical stability of the compounds. At predetermined intervals, aliquots were withdrawn and analyzed by UHPLC in order to assess the concentration decrease of the starting materials and the presence of the dimers usually formed by retigabine.
Photostability and chemical stability experiments were carried out on a Kinetex^TM C18 150 × 2.1 mm × 2.6 μm (100 Å) column (Phenomenex, Bologna, Italy). The optimal mobile phase consisted of 0.1% TFA/H2O v/v (A) and 0.1% TFA/ACN v/v (B). Analysis was performed in gradient elution as follows: 0–13.0 min, 5–65% B; 13–14.0 min, 65–95% B; 14–15.0 min, isocratic to 95% B; 15–15.01 min, 95–5% B; then 3 min for column re-equilibration. The flow rate was 0.5 mL min^–1. The column oven temperature was set to 45 °C. The injection volume was 7 μL of sample. The following PDA parameters were applied: sampling rate, 12.5 Hz; detector time constant, 0.160 s; cell temperature, 40 °C. Data acquisition was set in the range 190–800 nm, and chromatograms were monitored at 224 nm to assess the decrease in concentration of the starting material, while a wavelength of 550 nm was used to eventually detect dimerization.

Kv7.2/Kv7.3 channels = Kv7.2/Kv7.3 channels (Homo sapiens, UniProt O43525+O43526); experiment: FluxOR thallium-sensitive fluorescence-based assay in CHO cells stably expressing Kv7.2 + Kv7.3; assay type: cell-based; parameters: expressed in transfected cells; conditions: for Slope of the fluorescent signal at 10 μM: initial slope of FluxOR signal between 5 and 15 s, mean ± SEM; for EC50: FluxOR dose-response, slope parameter, read-out: EC50 (initial slope of the fluorescence signal)
in vivo = experiment: in vivo
Protocol: The animals were sacrificed after 60 min, and brain and blood were collected.
For the assessment of plasmatic concentration, 20 μL of plasma was treated with 100 μL of methanol in a test tube. The tube was vortexed for 30 s. Then, the sample was centrifuged for 10 min at 14680 rpm, at 4 °C. 90 μL of supernatant was dried under nitrogen, reconstituted in 150 μL of MeOH, and then injected into the UHPLC–MS/MS.
Frozen brain tissues were lyophilized overnight, then weighed, carefully homogenized, and extracted with methanol in a 10 mg:[…] tissue:solvent ratio. The samples were vortexed for 30 s, treated in an ultrasonic bath for 5 min, and then centrifuged for 10 min at 14680 rpm, at 4 °C.
Returning to 40% B in 0.10 min.
The ESI was operated in positive mode.

Compound | % Degradation (3h, UV) [1] [%] | Dimers Formation ([1]; 3 h UV-visible light) | Slope of the fluorescent signal at 10 μM (Kv7.2/Kv7.3 channels; 10 μM) | EC50 (Kv7.2/Kv7.3 channels) [µM] | Photodegradation (in words) ([1]; 3 h UV-visible light, compared with retigabine) | Kp at 1 h (in vivo; male, C57Bl/6, mouse, in vivo, ip, 1 mg/kg) | concentration at 60 min (in vivo; male, C57Bl/6, mouse, in vivo, ip, 1 mg/kg, Brain concentration) [ng/g] | concentration at 60 min (in vivo; male, C57Bl/6, mouse, in vivo, ip, 1 mg/kg, Plasma concentration) [ng/g] | Brain/plasma ratio higher than that of retigabine (in vivo; mice, 1 mg/kg i.p., 60 min) [times] | Kv7 opening activity (in words) (Kv7.2/Kv7.3 channels; 10 μM, compared with retigabine or the reference compound of the subseries)
CCOC(=O)Nc1ccc(NCc2ccc(F)cc2)cc1N [RET, retigabine] | 61.3±0.1 | Yes | 0.0270±0.0052 | 11.2 ± 1.6 | – | – | – | – | – | –
CC(C)(C)CC(=O)Nc1ccc(NCc2ccc(C(F)(F)F)cc2)c(F)c1N [compound 60, N-(2-Amino-3-fluoro-4-((4-(trifluoromethyl)benzyl)amino)phenyl)-3,3-dimethylbutanamide] | 34.8± 1.8 | failed to dimerize and No | 0.0594±0.0026 | 3.2 ± 1.7 | more photostable than retigabine | 40.4 | 727000 ± 179000 | 18200 ± 3700 | 18 | enhanced; also recorded: higher than that of retigabine

— article PMC9421656, “Beyond Retigabine: Design, Synthesis, and Pharmacological Characterization of a Potent and Chemically Stable Neuronal Kv7 Channel Activator with Anticonvulsant Activity” (Journal of Medicinal Chemistry, 2022)
